Assay [1] relates to Staphylococcus aureus. Kind of assay: Antibacterial activity against methicillin-resistant Staphylococcus aureus USA300 incubated for 18 to 20 hrs by broth microdilution method. It counts as functional. Conditions: time 18-20 hrs. On the technique in general: Dilution methods test growth across graded concentrations, often in twofold steps.
The test system of assay [2] is Staphylococcus aureus. Kind of assay: Antibacterial activity against Vancomycin-resistant Staphylococcus aureus 9 incubated for 18 to 20 hrs by broth microdilution method. It counts as functional. Conditions: time 18-20 hrs.
Assay [3] concerns Staphylococcus aureus. Kind of assay: Antibacterial activity against methicillin-sensitive Staphylococcus aureus ATCC 6538 incubated for 18 to 20 hrs by broth microdilution method. It counts as functional. Conditions: time 18-20 hrs.
Assay [4] deals with Staphylococcus aureus. Kind of assay: Antibacterial activity against methicillin-resistant Staphylococcus aureus NRS 119 incubated for 18 to 20 hrs by broth microdilution method. It counts as functional. Conditions: time 18-20 hrs.
Assay [5] relates to Staphylococcus epidermidis. Nature of the assay: Antibacterial activity against Staphylococcus epidermidis NRS 101 incubated for 18 to 20 hrs by broth microdilution method. It counts as functional. Conditions: time 18-20 hrs.
The test system of assay [6] is Staphylococcus aureus. Kind of assay: Antibacterial activity against methicillin-resistant Staphylococcus aureus NRS 123 (USA400) incubated for 18 to 20 hrs by broth microdilution method. It counts as functional. Conditions: time 18-20 hrs.
Assay [7] concerns Staphylococcus aureus. Nature of the assay: Antibacterial activity against methicillin-resistant Staphylococcus aureus NRS 384 (USA300) incubated for 18 to 20 hrs by broth microdilution method. It counts as functional. Conditions: time 18-20 hrs.
For assay [8], the system named is Staphylococcus aureus. Nature of the assay: Antibacterial activity against Vancomycin-resistant Staphylococcus aureus 10 incubated for 18 to 20 hrs by broth microdilution method. It counts as functional. Conditions: time 18-20 hrs.
The subject of assay [9] is Staphylococcus aureus. Kind of assay: Antibacterial activity against methicillin-sensitive Staphylococcus aureus NRS 107 incubated for 18 to 20 hrs by broth microdilution method. It counts as functional. Conditions: time 18-20 hrs.
The subject of assay [10] is Staphylococcus aureus. Kind of assay: Antibacterial activity against methicillin-resistant Staphylococcus aureus USA300 infected in BALB/c mouse assessed as recovery of body weight loss administered 72 hrs post infection topically twice daily for 4 days. It counts as functional, organism-based. Conditions: time 4.0 day.
Assay [11] deals with Staphylococcus aureus. Nature of the assay: Antibacterial activity against methicillin-resistant Staphylococcus aureus USA300 infected in BALB/c mouse assessed as reduction in bacterial count in spleen administered 72 hrs post infection topically twice daily for 4 days. It counts as functional, organism-based. Conditions: time 4.0 day.
Assay [12] has as its system Staphylococcus aureus. Nature of the assay: Antibacterial activity against methicillin-resistant Staphylococcus aureus USA300 infected in BALB/c mouse assessed as reduction in bacterial count administered 72 hrs post infection topically twice daily for 4 days. Conditions: time 4.0 day. It counts as functional, organism-based.
In assay [13] the test system is Staphylococcus aureus. Kind of assay: Induction of drug resistance in methicillin-resistant Staphylococcus aureus USA400 NRS 123 assessed as fold increase in MIC measured after 15 passages by broth microdilution assay. It counts as functional.
Assay [14] deals with Staphylococcus aureus. Kind of assay: Induction of drug resistance in methicillin-resistant Staphylococcus aureus USA400 NRS 123 assessed as fold increase in MIC measured after 7 passages by broth microdilution assay. It counts as functional.

Values after ≈ are worked out from the molar mass of the structure shown. Active and inactive are the calls of the source. The calls are words filed in the database; no cut-off is given here.

In general, MIC refers to the lowest concentration found to suppress growth. Lower therefore signals greater potency. In assay [1], `C/C(=N\NC(=N)N)c1ccc(NC(=O)Nc2ccc(-c3ccccc3)cc2)cc1` displayed an MIC of 4 µg/mL (≈ 10.4 µM).
In [1], `C/C(=N\NC(=N)N)c1ccc(NC(=O)Nc2ccc(-c3ccc(C)cc3)cc2)cc1` displayed a minimum inhibitory concentration (MIC) of 4 µg/mL (≈ 9.99 µM).
For `C/C(=N\NC(=N)N)c1ccc(NC(=O)Nc2ccc(-c3ccoc3)cc2)cc1`, the MIC in [1] worked out at 4 µg/mL (≈ 10.6 µM).
With `CC(=O)NC[C@H]1CN(c2ccc(N3CCOCC3)c(F)c2)C(=O)O1` [LINEZOLID], the MIC worked out at 1 µg/mL (≈ 2.96 µM) in [2]; 1 µg/mL (≈ 2.96 µM) in [3]; 32 µg/mL (≈ 94.9 µM) in assay [4]; 1 µg/mL (≈ 2.96 µM) in assay [5]; 1 µg/mL (≈ 2.96 µM) in assay [6]; 1 µg/mL (≈ 2.96 µM) in assay [7]. For the same molecule, the MIC in assay [8] and in assay [9] was 1 µg/mL (≈ 2.96 µM) throughout.
Take `C/C(=N\NC(=N)N)c1ccc(NC(=O)Nc2ccc(-c3cc4ccccc4o3)cc2)cc1`: 4 µg/mL (≈ 9.38 µM) was the least that counted as inhibitory in assay [1] (MIC).
Regarding `C/C(=N\NC(=N)N)c1ccc(NC(=O)Nc2ccc(-c3cccnc3)cc2)cc1`, the MIC in assay [1] was 4 µg/mL (≈ 10.3 µM).
For the molecule `CC(=O)O[C@H]1C[C@@]2(C)[C@@H](C[C@@H](O)[C@H]3[C@@]4(C)CC[C@@H](O)[C@@H](C)[C@@H]4CC[C@@]32C)/C1=C(\CCC=C(C)C)C(=O)O`, the result in assay [10], in assay [11] and in [12] was Active.
For `C/C(=N\NC(=N)N)c1ccc(NC(=O)Nc2ccc(-c3cc4ccccc4s3)cc2)cc1`, the minimum inhibitory concentration (MIC) in assay [1] came to 4 µg/mL (≈ 9.04 µM).
Turning to `C/C(=N\NC(=N)N)c1ccc(NC(=O)Nc2ccc(Cc3ccccc3)cc2)cc1`, in [1], the MIC was found to be 4 µg/mL (≈ 9.99 µM).
For the molecule `CO[C@H]1/C=C/O[C@@]2(C)Oc3c(C)c(O)c4c(O)c(c(/C=N/N5CCN(C)CC5)c(O)c4c3C2=O)NC(=O)/C(C)=C\C=C\[C@H](C)[C@H](O)[C@@H](C)[C@@H](O)[C@@H](C)[C@H](OC(C)=O)[C@@H]1C`, the figures for the fold change (FC) in assay [13] and in assay [14] were above 500000 and 8, respectively.
Turning to `C/C(=N\NC(=N)N)c1ccc(NC(=O)Nc2ccc(C3CCC3)cc2)cc1`, the MIC in [1] is at least 64 µg/mL.
`C/C(=N\NC(=N)N)c1ccc(NC(=O)Nc2ccc(C3CC3)cc2)cc1` returned an MIC in [1] of at least 64 µg/mL.

The record behind these values is ChEMBL document CHEMBL5154795, “Exploring the structure-activity relationships of diphenylurea as an antibacterial scaffold active against methicillin- and vancomycin-resistant Staphylococcus aureus” (Eur J Med Chem, 2022).
